Columns and labels:
human TLR8 = target: T1, human TLR8 (Homo sapiens, UniProt Q9NR97); assay: Inhibition of human TLR8 in human monocytes (TNF-alpha / IL-1 beta ELISA); assay type: cell-based; settings: human monocytes, agonist ORN8L 100 μg/mL, TNF-alpha readout, 24 hours; read-out: Human TLR8 IC50 TNF-a
T1 construct: endogenous in cells; host or cells: primary human monocytes (CD14 microbeads) from buffy coats of healthy donors
T1 sequence (Q9NR97 27-1041): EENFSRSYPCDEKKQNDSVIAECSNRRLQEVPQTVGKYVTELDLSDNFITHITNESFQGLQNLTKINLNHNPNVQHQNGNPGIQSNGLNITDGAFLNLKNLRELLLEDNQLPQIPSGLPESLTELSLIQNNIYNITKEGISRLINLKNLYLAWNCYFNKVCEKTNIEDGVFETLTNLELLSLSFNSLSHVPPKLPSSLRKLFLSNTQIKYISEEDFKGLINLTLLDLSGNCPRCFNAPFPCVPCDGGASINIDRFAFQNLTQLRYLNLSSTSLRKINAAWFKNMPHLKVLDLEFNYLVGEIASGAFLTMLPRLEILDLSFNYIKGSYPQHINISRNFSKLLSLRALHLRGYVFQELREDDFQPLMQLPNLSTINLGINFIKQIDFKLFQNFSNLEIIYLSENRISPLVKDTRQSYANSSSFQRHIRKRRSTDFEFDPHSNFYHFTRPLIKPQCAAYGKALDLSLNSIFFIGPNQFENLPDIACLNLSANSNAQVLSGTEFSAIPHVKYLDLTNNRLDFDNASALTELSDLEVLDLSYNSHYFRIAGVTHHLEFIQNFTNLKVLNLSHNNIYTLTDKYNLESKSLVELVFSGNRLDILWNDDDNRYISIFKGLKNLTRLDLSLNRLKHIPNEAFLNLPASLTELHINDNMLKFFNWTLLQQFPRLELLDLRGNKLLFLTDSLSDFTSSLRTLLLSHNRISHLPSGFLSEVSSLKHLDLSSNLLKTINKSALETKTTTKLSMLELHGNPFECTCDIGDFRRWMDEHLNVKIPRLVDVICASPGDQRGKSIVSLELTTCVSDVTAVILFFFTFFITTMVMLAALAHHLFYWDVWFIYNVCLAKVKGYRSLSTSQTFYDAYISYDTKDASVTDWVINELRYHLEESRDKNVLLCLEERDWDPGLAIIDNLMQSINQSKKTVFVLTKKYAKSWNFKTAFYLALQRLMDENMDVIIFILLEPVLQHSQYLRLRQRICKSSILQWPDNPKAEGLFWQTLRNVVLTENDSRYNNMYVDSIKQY
Outline: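 Primary human monocytes from donor buffy coats (~200,000 cells/well) given serially diluted compound, then ORN8L RNA oligonucleotide agonist at 100 μg/mL final. After 24 h at 37 °C, supernatant TNF-alpha and/or IL-1 beta measured by ELISA; IC50 from the concentration-response of cytokine release.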

human TLR9 = target: T2, human TLR9 (Homo sapiens, UniProt Q9NR96); assay: Inhibition of human TLR9 in human B cells (IL-6 ELISA); assay type: cell-based; settings: human B cells, agonist 1018 ISS 1 μM, IL-6 readout, 48 hours; range about 0.01 to 10 μM; read-out: Human TLR9 IC50
T2 construct: endogenous in cells; host or cells: primary human B cells (CD19 microbeads) from buffy coats of healthy donors
T2 sequence (Q9NR96 26-1032): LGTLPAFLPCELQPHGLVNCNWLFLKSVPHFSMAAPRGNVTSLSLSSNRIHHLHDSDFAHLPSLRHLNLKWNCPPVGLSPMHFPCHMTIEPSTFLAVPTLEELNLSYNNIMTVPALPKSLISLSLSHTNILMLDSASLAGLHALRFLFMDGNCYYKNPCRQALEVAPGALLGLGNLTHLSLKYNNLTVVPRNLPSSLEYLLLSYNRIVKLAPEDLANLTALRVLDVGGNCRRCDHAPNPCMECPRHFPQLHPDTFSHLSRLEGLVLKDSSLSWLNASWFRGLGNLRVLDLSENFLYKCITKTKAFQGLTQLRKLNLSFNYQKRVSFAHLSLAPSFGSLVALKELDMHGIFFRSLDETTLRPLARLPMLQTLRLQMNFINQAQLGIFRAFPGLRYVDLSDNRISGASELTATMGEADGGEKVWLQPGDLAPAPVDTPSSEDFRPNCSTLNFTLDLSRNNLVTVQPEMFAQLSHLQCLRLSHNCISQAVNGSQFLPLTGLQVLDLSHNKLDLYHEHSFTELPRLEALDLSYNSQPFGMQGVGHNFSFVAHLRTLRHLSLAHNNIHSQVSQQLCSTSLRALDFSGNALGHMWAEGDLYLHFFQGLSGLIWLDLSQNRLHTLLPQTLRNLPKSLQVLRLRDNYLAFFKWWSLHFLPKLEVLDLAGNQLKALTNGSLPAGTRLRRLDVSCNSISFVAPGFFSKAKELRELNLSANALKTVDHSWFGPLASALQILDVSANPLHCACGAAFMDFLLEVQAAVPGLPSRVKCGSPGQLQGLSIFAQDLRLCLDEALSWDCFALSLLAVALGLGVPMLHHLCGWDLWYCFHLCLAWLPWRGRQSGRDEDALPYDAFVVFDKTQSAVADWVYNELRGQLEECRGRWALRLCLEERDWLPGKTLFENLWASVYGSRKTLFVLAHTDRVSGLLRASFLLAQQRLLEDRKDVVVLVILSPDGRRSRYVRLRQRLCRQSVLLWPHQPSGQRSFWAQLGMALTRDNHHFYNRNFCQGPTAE
Outline: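 Primary human B cells (CD19-isolated from donor buffy coats), ~300,000 per well, treated with compound (about 0.01–10 μM, some 0.001–30 μM) then 1 μM CpG oligonucleotide 1018 ISS. After 48 hours at 37° C, supernatant IL-6 measured by ELISA; IC50 from concentration-response of TLR9-dependent activity.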

Row | Compound | IC50 (human TLR8) | IC50 (human TLR9)
1 | Cc1ccc(-n2nc3c(N4CCC(C(=O)N5CCC(CN(C)Cc6ccccc6)C5)CC4)nnc(C)c3c2C)cc1 (stereo not shown) [compound 68, (3-((benzyl(methyl)amino)methyl)pyrrolidin-1-yl)(1-(3,4-dimethyl-2-(p-tolyl)-2H-pyrazolo[3,4-d]pyridazin-7-yl)piperidin-4-yl)methanone] | 1180 nM | 85 nM
2 | Cc1ccc(-n2nc3c(N4CCC(C(=O)N5CCC(N6CCOCC6)CC5)CC4)nnc(C)c3c2C)cc1 [compound 69, (1-(3,4-dimethyl-2-(p-tolyl)-2H-pyrazolo[3,4-d]pyridazin-7-yl)piperidin-4-yl)(4-morpholinopiperidin-1-yl)methanone] | 3840 nM | 253 nM
3 | Cc1ccc(-n2nc3c(N4CCC(C(=O)N5CCC(CN6CCOCC6)C5)CC4)nnc(C)c3c2C)cc1 (stereo not shown) [compound 70, (1-(3,4-dimethyl-2-(p-tolyl)-2H-pyrazolo[3,4-d]pyridazin-7-yl)piperidin-4-yl)(3-(morpholinomethyl)pyrrolidin-1 yl)methanone] | 5120 nM | 150 nM
4 | Cc1ccc(-n2nc3c(N4CCC(C(=O)N5CC6CNCC6C5)CC4)nnc(C)c3c2C)cc1 (stereo not shown) [compound 71, (1-(3,4-dimethyl-2-(p-tolyl)-2H-pyrazolo[3,4-d]pyridazin-7-yl)piperidin-4-yl) (hexahydropyrrolo[3,4-c]pyrrol-2(1H)-yl)methanone] | ≥ 20000 nM | 588 nM
5 | Cc1ccc(-n2nc3c(N4CCC(C(=O)N5CC6CN(C)CC6C5)CC4)nnc(C)c3c2C)cc1 (stereo not shown) [compound 72, (1-(3,4-dimethyl-2-(p-tolyl)-2H-pyrazolo[3,4-d]pyridazin-7-yl)piperidin-4-yl)(5-methylhexahydropyrrolo[3,4-c]pyrrol-2(1H)-yl)methano] | 9170 nM | 12 nM
6 | Cc1ccc(-n2nc3c(N4CCC(C(=O)N5CCC6(CC5)CNC6)CC4)nnc(C)c3c2C)cc1 [compound 73, (1-(3,4-dimethyl-2-(p-tolyl)-2H-pyrazolo[3,4-d]pyridazin-7-yl)piperidin-4-yl)(2,7-diazaspiro[3.5]nonan-7-yl)methanone] | ≥ 20000 nM | 1140 nM
7 | Cc1ccc(-n2nc3c(N4CCC(C(=O)N5CCC6(CNC6)C5)CC4)nnc(C)c3c2C)cc1 [compound 74, (1-(3,4-dimethyl-2-(p-tolyl)-2H-pyrazolo[3,4-d]pyridazin-7-yl)piperidin-4-yl)(2,6-diazaspiro[3.4]octan-6-yl)methanone] | ≥ 20000 nM | 2590 nM
8 | Cc1ccc(-n2nc3c(N4CCC(C(=O)N5CCC6(CN(C)C6)C5)CC4)nnc(C)c3c2C)cc1 [compound 75, (1-(3,4-dimethyl-2-(p-tolyl)-2H-pyrazolo[3,4-d]pyridazin-7-yl)piperidin-4-yl)(2-methyl-2,6-diazaspiro[3.4]octan-6-yl)methanone] | ≥ 20000 nM | 25 nM

From patent US11370794B2, “Toll-like receptor antagonist compounds and methods of use” (Dynavax Technologies Corporation, priority 2016, dated 2022)
